In brackets after ≈: the same amount, converted by molar mass.

The text below walks through data of ChEMBL document CHEMBL5352390, “Design, synthesis and biological evaluation of (Quinazoline 4-yloxy)acetamide and (4-oxoquinazoline-3(4H)-yl)acetamide derivatives as inhibitors of Mycobacterium tuberculosis bd oxidase” (2022).

In the experiment the test system is Mycobacterium tuberculosis. Briefly: Antimycobacterial activity against Mycobacterium tuberculosis H37Rv harboring qcrB deletion mutant assessed as inhibition of bacterial growth incubated for 7 days by resazurin microplate assay. The class given is functional. The note with it: time 7 day. A general note: The colour change of resazurin is a common sign of viable cells or microbes.

Consider `O=C(COc1ncnc2ccccc12)Nc1ccc(OC(F)(F)F)cc1`, for which the minimum inhibitory concentration (MIC) (usually the least concentration at which growth counts as inhibited) was over 32 µM.

As for `O=C(Cn1cnc2ccccc2c1=O)Nc1ccc(F)cc1`, the MIC is over 32 µM.

Turning to `COc1ccc(NC(=O)COc2ncnc3ccccc23)cc1`, the MIC is over 32 µM.

For `Cc1ccccc1NC(=O)COc1ncnc2ccccc12`, the MIC was over 32 µM.

`O=C(COc1ncnc2ccccc12)Nc1cccc2ccccc12`: the MIC is over 32 µM.

On to `O=C(Cn1cnc2ccccc2c1=O)Nc1ccc([N+](=O)[O-])cc1`, for which the MIC was over 32 µM.

For the compound `COc1ccc(N2CCN(c3ccc(CNC(=O)COc4ncnc5ccccc45)cc3)CC2)cc1`, the minimum inhibitory concentration (MIC) was over 32 µM.

Turning to `O=C(COc1ncnc2ccccc12)NCc1ccc(N2CCN(Cc3ccccc3)CC2)cc1`, the MIC was over 32 µM.

Take `O=C(COc1ncnc2ccccc12)Nc1ccc(Br)cc1`: the MIC is over 32 µM.

In the case of `O=C(Cn1cnc2ccccc2c1=O)NC1=C(C(F)(F)F)CCC=C1`, the MIC is over 32 µM.

As to `O=C(COc1ncnc2ccccc12)NCc1ccccc1`, the MIC is over 32 µM.

As for `O=C(COc1ncnc2ccccc12)Nc1ccccc1`, the MIC came to 8 µM (≈ 2.23 µg/mL).

Regarding `O=C(Cn1cnc2ccccc2c1=O)Nc1ccc(Br)cc1`, the MIC is over 32 µM.

Turning to `O=C(Cn1cnc2ccccc2c1=O)Nc1ccc(Cl)cc1`, the MIC is over 32 µM.

Consider `O=C(COc1ncnc2ccccc12)NCc1ccc(N2CCC(c3ccccc3)CC2)cc1`, for which the minimal inhibitory concentration (MIC) was over 32 µM.

For `CSc1ccc(NC(=O)Cn2cnc3ccccc3c2=O)cc1`, the MIC was over 32 µM.

Turning to `O=C(Cn1cnc2ccccc2c1=O)Nc1ccc(C(F)(F)F)cc1`, the MIC was over 32 µM.

With `O=C(COc1ncnc2ccccc12)Nc1ccc(C(F)(F)F)cc1`, the MIC is over 32 µM.

Turning to `O=C(COc1ncnc2ccccc12)Nc1ccc(F)cc1`, the MIC was over 32 µM.

Consider `Cc1ccc(NC(=O)Cn2cnc3ccccc3c2=O)cc1`, for which the MIC was over 32 µM.

As for `COc1ccccc1NC(=O)Cn1cnc2ccccc2c1=O`, the MIC was over 32 µM.

`O=C(COc1ncnc2ccccc12)NCc1ccc(N2CCN(c3ccccc3)CC2)cc1`: the MIC was over 32 µM.

Take `Cc1ccc(NC(=O)COc2ncnc3ccccc23)cc1`: the minimal inhibitory concentration (MIC) is over 32 µM.

As for `COc1ccc(NC(=O)Cn2cnc3ccccc3c2=O)cc1`, the MIC was over 32 µM.

Take `O=C(COc1ncnc2ccccc12)NCc1ccc(N2CCN(c3ccc(F)cc3)CC2)cc1`: the MIC was over 32 µM.

Consider `O=C(Cn1cnc2ccccc2c1=O)Nc1ccccc1`, for which the minimum inhibitory concentration (MIC) was over 32 µM.

In the case of `COc1ccccc1NC(=O)COc1ncnc2ccccc12`, the MIC is over 32 µM.

With `O=C(Cn1cnc2ccccc2c1=O)Nc1ccc(OC(F)(F)F)cc1`, the MIC was over 32 µM.

In the case of `O=C(COc1ncnc2ccccc12)Nc1ccc(Cl)cc1`, the minimal inhibitory concentration (MIC) amounted to 16 µM (≈ 5.02 µg/mL).
